Assay results from patent publication US5976844A, “Riboflavin-production process by means of micro-organisms with modified isocitratlyase activity” (BASF Aktiengesellschaft, priority 1995, dated 1999).
Read-outs that look alike come from different tables or passages of the source.

Target: Ashbya gossypii ICL (isocitrate lyase) (Eremothecium gossypii, UniProt O94198)
Assay: Colorimetric test of purified isocitrate lyase (ICL) activity with inhibitors
Type: biochemical
Details: for inhibition at 1000 µM: read-out: inhibition of ICL activity
Text: In order to identify substances exerting an inhibitory effect on ICL, the Ashbya gossypii ICL was first of all purified. The enzyme was isolated and purified after the fungal mycelium had been grown on vegetable oil. […] Approximately 78% of this activity is recovered in dissolved form in the supernatant after centrifuging at 40,000 g. Subsequent fractionation by means of ammonium sulfate precipitation results in a three-fold enrichment of the enzyme. After gel filtration through a Sephacryl S-300 column, the ICL is bound to the cation exchange material Mono S-Sepharose and eluted with NaCl. The resulting preparation is homogeneous by SDS polyacrylamide gel electrophoresis and has a specific activity of 18.4 U/mg.
The purified enzyme can be used to measure the effects of substances on its activity in a […] test (Dixon, H. and Kornberg, H. L. (1959), Biochem. J. 72, 3: Assay methods for key enzymes of the glyoxylate cycle). The effects of the tested substances on the enzyme are summarized and depicted in Table 2 and FIG. 1, respectively. Substances to be investigated included those which, as metabolites in the fungal cell, could have an inhibitory effect on the enzyme.

[1] = purified enzyme, concentration of 10 mM

Chain of Ashbya gossypii ICL (isocitrate lyase) (O94198 whole entry): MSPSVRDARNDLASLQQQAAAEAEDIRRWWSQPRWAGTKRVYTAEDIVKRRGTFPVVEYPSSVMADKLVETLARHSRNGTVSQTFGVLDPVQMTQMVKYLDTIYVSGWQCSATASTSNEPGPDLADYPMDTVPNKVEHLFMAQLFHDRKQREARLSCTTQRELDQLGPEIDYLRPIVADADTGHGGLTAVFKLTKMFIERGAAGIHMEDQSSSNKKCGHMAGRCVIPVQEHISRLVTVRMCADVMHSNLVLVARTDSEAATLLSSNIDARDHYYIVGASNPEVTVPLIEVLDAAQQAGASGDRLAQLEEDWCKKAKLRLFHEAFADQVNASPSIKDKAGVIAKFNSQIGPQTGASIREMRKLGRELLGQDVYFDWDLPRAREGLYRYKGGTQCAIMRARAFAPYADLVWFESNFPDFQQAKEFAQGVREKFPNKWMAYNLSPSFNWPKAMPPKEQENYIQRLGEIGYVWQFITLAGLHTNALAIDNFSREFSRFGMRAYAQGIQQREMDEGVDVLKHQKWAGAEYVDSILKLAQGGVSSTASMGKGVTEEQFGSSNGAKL

O=C(O)C(=O)O [oxalate]
inhibition at 1000 µM (purified enzyme, concentration of 1 mM): 95%

C=C(CC(=O)O)C(=O)O [itaconate]
inhibition at 1000 µM: 78%

O=C(O)[C@H](O)[C@@H](O)[C@H](O)[C@H](O)COP(=O)(O)O [6-P-gluconate]
inhibition of ICL activity [1]: greater than 50%

C=C(OP(=O)(O)O)C(=O)O [phosphoenolpyruvate]
inhibition at 10000 µM [1]: > 50%
